From patent publication US5134137A, “Cephalosporin antibiotics” (The Upjohn Company, priority 1990, dated 1992)
≈ marks a conversion by molar mass, not a printed value. Where two headings read alike, the source gives them in different places.

Legend:
Salmonella choleraesuis = experiment: MIC, agar dilution, Salmonella choleraesuis; type: cell-based; conditions: Salmonella enterica, read-out: MIC
Outline: (§1)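 Each organism receives an inoculum of approx. 10^3–10^4 CFU, taken from a 5% CO2 BHI subculture standardised to 0.5 McFarland and diluted 1:20. It is spotted on Mueller-Hinton agar containing the compound, then incubated for 16–18 h at 37 °C with CO2.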

[1] = tested on: Streptococcus dysgalactiae; experiment: MIC, agar dilution, Streptococcus dysgalactiae; type: cell-based; conditions: Streptococcus dysgalactiae; strain UC251; read-out: MIC
Outline: as §1

Pseudomonas aeruginosa = experiment: MIC, agar dilution, Pseudomonas aeruginosa; type: cell-based; conditions: Pseudomonas aeruginosa; strain ATCC27853; read-out: MIC
Outline: as §1

[2] = Serum half life / duration of antibiotic action
[3] = Stability of the compound; type: physicochemical
Strep. faecalis = experiment: MIC, agar dilution, Strep. faecalis; type: cell-based; conditions: Enterococcus faecalis
Experimental: Stock solution of each test antibiotic compound were prepared to have a concentration of 2 mg. of the test compound per milliliter in sterile water of 0.1M ammonium acetate solution. The amount of each compound used was adjusted for base compound activity as calculated from the purity data for the selected batch of compound.
The dilution procedure described by Washington and Sutter [Manual of Clinical Microbiology, 3rd, Edit. (Lennett, E. H. et al, Eds.), pp. 453-458 (1980), American Society for Microbiology, Washington, D.C.] was modified so that serial concentrations of 128 to 0.0625 microgram/ml. in sterile water was obtained. Then 1.5 ml. aliquots of these test antibiotic dilution mixtures are added to 13.5 molten (50° C.) Mueller-Hinton agar. Each resulting mixture is poured into 15×100 mm, sterile Petri plates and allowed to dry at room temperature overnight.
Test bacterial cultures are maintained at -70° C. on glass beads. [See R. J. Yancey, Jr. et al, Amer. Jr. of Vet. Research, 48, No. 7, pp. 1050-1053, (1987)]. At least one bacteria-laden bead per culture is dropped into one ml. of brain heart infusion (BHI) broth for overnight culture at 37° C. in 5% V/V carbon dioxide in air atmosphere.
On the data of assay, 2 to 8 drops of the bacterial broth cultures are transferred to fresh BHI broth (1 ml.) and the mixture is incubated for 4 to 6 hours at 37° C. in a 5% V/V carbon dioxide in air atmosphere. The resulting cultures are then diluted to match a 0.5 MacFarland standard and further diluted 1:20 V/V with sterile saline solution.
A 0.001 ml. drop of the resulting mixture, containing approximately 10^3 to 10^4 colony forming units (CFU) of each test bacteria organism, is dispensed onto the surface of the test antibiotic compound test plates with a Steer's type replicator. The resulting innoculated plates are incubated 16 to 18 hours at 37° C. with a carbon dioxide atmosphere.

Staphylococcus aureus = experiment: MIC, agar dilution, Staphylococcus aureus; type: cell-based; conditions: Staphylococcus aureus, read-out: MIC
Outline: as §1

Corynebacterium pyogenes = experiment: MIC, agar dilution, Corynebacterium pyogenes; type: cell-based; conditions: strain 213-2; read-out: MIC
Outline: as §1

Micrococcus luteus = experiment: MIC, agar dilution, Micrococcus luteus; type: cell-based; conditions: Micrococcus luteus; strain UC130; read-out: MIC
Outline: as §1

[4] = CHOLERAESUIS / UC6073, strain UC6073
[5] = CHOLERAESUIS / UC6077, strain UC6077

CO/N=C(\C(=O)N[C@@H]1C(=O)N2C(C(=O)O)=C(CS)CS[C@H]12)c1csc(N)n1 [Formula III compound, 3-mercaptomethyl-7β-[2-(2-amino-1,3-thiazol-4-yl)-(Z)-2-(methoxyimino)acetamido]ceph-3-em-4-carboxylic acid]
MIC (Salmonella choleraesuis; [4]): 2 µg/mL
MIC (Salmonella choleraesuis; [5]): 1 µg/mL
MIC [1]: ≤ 0.06 µg/mL
MIC (Pseudomonas aeruginosa): > 32 µg/mL
duration of antibiotic action ([2]; compared with ceftiofur): biologically longer acting as an antibiotic than ceftiofur
serum half life ([2]; inferred from results against Salmonella typhimurium): longer serum half life
stability in alkaline solution ([3]; alkaline solution): decomposes quickly
stability in the dry state ([3]; dry state, white powder): stable in the dry state
stability in strongly acidic media ([3]; strongly acidic media): converted to the 3,4-thio-lactone derivative
MIC (Strep. faecalis; strain ATCC29212): > 32 µg/mL
MIC (Strep. faecalis; strain UC241): > 32 µg/mL
MIC (Strep. faecalis; strain UC694): > 32 µg/mL
MIC (Staphylococcus aureus; strain ATCC25923): 16 µg/mL
MIC (Staphylococcus aureus; strain UC6093): 16 µg/mL
MIC (Staphylococcus aureus; strain UC6097): 16 µg/mL
MIC (Staphylococcus aureus; strain UC6688): > 32 µg/mL
MIC (Staphylococcus aureus; strain UC9201): 16 µg/mL
MIC (Corynebacterium pyogenes): 0.25 µg/mL

CO/N=C(\C(=O)N[C@@H]1C(=O)N2C(C(=O)O)=C(CO)CS[C@H]12)c1csc(N)n1 [desacetyl cefotoxime, 7-[2-(2-amino-1,3-thiazol-4-yl)-(syn)-2-methoxyiminoacetamido]-3-hydroxymethylceph-3-em-4-carboxylic acid, reference compound]
MIC (Salmonella choleraesuis; [4]): 0.5 µg/mL (≈ 1.21 µM)
MIC (Salmonella choleraesuis; [5]): 1 µg/mL (≈ 2.42 µM)
MIC [1]: ≤ 0.06 µg/mL
MIC (Pseudomonas aeruginosa): > 32 µg/mL
MIC (Strep. faecalis; strain ATCC29212): > 32 µg/mL
MIC (Strep. faecalis; strain UC241): > 32 µg/mL
MIC (Strep. faecalis; strain UC694): > 32 µg/mL
MIC (Staphylococcus aureus; strain ATCC25923): 4 µg/mL (≈ 9.67 µM)
MIC (Staphylococcus aureus; strain UC6093): 16 µg/mL (≈ 38.7 µM)
MIC (Staphylococcus aureus; strain UC6097): 16 µg/mL (≈ 38.7 µM)
MIC (Staphylococcus aureus; strain UC6688): > 32 µg/mL
MIC (Staphylococcus aureus; strain UC9201): 16 µg/mL (≈ 38.7 µM)
MIC (Corynebacterium pyogenes): 0.25 µg/mL (≈ 0.605 µM)

CO/N=C(\C(=O)N[C@@H]1C(=O)N2C(C(=O)O)=C(CSC(=O)c3ccco3)CS[C@H]12)c1csc(N)n1 [ceftiofur, 7-[2-(amino-1,3-thiazol-4-yl)-2-(methoxyimino)acetamido]-3-[(fur-2-ylcarbonyl)thiomethyl]-3-cephem-4-carboxylic acid, reference compound]
MIC (Salmonella choleraesuis; [4]): 1 µg/mL (≈ 1.91 µM)
MIC (Salmonella choleraesuis; [5]): 2 µg/mL (≈ 3.82 µM)
MIC [1]: ≤ 0.06 µg/mL
MIC (Micrococcus luteus): 0.25 µg/mL (≈ 0.477 µM)
MIC (Pseudomonas aeruginosa): 32 µg/mL (≈ 61.1 µM)
MIC (Strep. faecalis; strain ATCC29212): 32 µg/mL (≈ 61.1 µM)
MIC (Strep. faecalis; strain UC241): > 32 µg/mL
MIC (Strep. faecalis; strain UC694): > 32 µg/mL
MIC (Staphylococcus aureus; strain ATCC25923): 0.25 µg/mL (≈ 0.477 µM)
MIC (Staphylococcus aureus; strain UC6093): 1 µg/mL (≈ 1.91 µM)
MIC (Staphylococcus aureus; strain UC6097): 0.5 µg/mL (≈ 0.955 µM)
MIC (Staphylococcus aureus; strain UC6688): 32 µg/mL (≈ 61.1 µM)
MIC (Staphylococcus aureus; strain UC9201): 1 µg/mL (≈ 1.91 µM)
MIC (Corynebacterium pyogenes): < 0.06 µg/mL
